Experimental data as given in ChEMBL document CHEMBL1201862, “PubChem BioAssay data set” (2004).
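A five-concentration, 48-hour dose response in 96-well plates underlies each endpoint, interpolated linearly between surrounding concentrations. GI50: concentration for 50% inhibition of growth.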 Active and inactive are the calls of the source. Rule as the data show it: active = GI50 up to about 1.1 µM and inactive = higher.

How the values were obtained:
Assay in all cases: DTP human tumour cell line panel, 48 h
OVCAR-4 = system: OVCAR-4
CAKI-1 = system: CAKI-1
HCT-116 = system: HCT-116
SF-295 = system: SF-295
SNB-75 = system: SNB-75
SF-539 = system: SF-539
SNB-19 = system: SNB-19
OVCAR-8 = system: OVCAR-8
OVCAR-5 = system: OVCAR-5
ACHN = system: ACHN
BT-549 = system: BT-549
M14 = system: M14
HOP-62 = system: HOP-62
PC-3 = system: PC-3
OVCAR-3 = system: OVCAR-3
DU-145 = system: DU-145
EKVX = system: EKVX
MDA-MB-435 = system: MDA-MB-435
NCI-H522 = system: NCI-H522
RXF 393 = system: RXF 393

Measured: GI50

COc1cc(/C=C2\N=C(c3ccccc3)N(c3ccc(C(=O)c4ccccc4)cc3N3C(=O)/C(=C/c4ccc(O)c(OC)c4)N=C3c3ccccc3)C2=O)ccc1O
inactive: OVCAR-4 14.9 µM | CAKI-1 18.7 µM | HCT-116 5.62 µM | SF-295 6.43 µM | SNB-75 18.8 µM | SF-539 5.15 µM | SNB-19 19.5 µM | OVCAR-8 12.7 µM | OVCAR-5 32.4 µM | ACHN 17.5 µM | BT-549 18.7 µM | M14 11.3 µM | HOP-62 14.5 µM | PC-3 11.8 µM | OVCAR-3 3.52 µM | DU-145 17 µM | EKVX 25.9 µM | MDA-MB-435 2.25 µM

O=c1cc(N2CCCC2)[nH]c(=O)n1Cc1ccccc1
inactive: OVCAR-4 > 100 µM | CAKI-1 > 100 µM | HCT-116 > 100 µM | SF-295 > 100 µM | SNB-75 > 100 µM | SF-539 > 100 µM | SNB-19 > 100 µM | OVCAR-8 > 100 µM | OVCAR-5 > 100 µM | ACHN > 100 µM | BT-549 > 100 µM | NCI-H522 > 100 µM | M14 > 100 µM | HOP-62 > 100 µM | PC-3 > 100 µM | DU-145 > 100 µM | EKVX > 100 µM | MDA-MB-435 > 100 µM

CC12ON=C(c3ccccc3)N1C=CN1C(c3ccccc3)=NOC12 (stereo unspecified)
inactive: CAKI-1 > 100 µM | HCT-116 98.6 µM | SF-295 > 100 µM | SNB-75 > 100 µM | SF-539 > 100 µM | SNB-19 > 100 µM | OVCAR-8 > 100 µM | OVCAR-5 > 100 µM | RXF 393 64.9 µM | ACHN > 100 µM | BT-549 > 100 µM | NCI-H522 > 100 µM | M14 > 100 µM | HOP-62 > 100 µM | PC-3 > 100 µM | OVCAR-3 > 100 µM | DU-145 > 100 µM | EKVX > 100 µM

O=C(/C=C/c1c[nH]c2ccccc12)c1ccccc1O
inactive: OVCAR-4 10.7 µM | HCT-116 12.9 µM | SF-295 10.4 µM | SNB-75 11.6 µM | SF-539 12.6 µM | SNB-19 16.5 µM | OVCAR-8 12.9 µM | OVCAR-5 13.6 µM | ACHN 12.6 µM | BT-549 12.4 µM | NCI-H522 7.64 µM | M14 14 µM | HOP-62 14.3 µM | PC-3 4.03 µM | OVCAR-3 5.05 µM | DU-145 11.7 µM | EKVX 5.97 µM | MDA-MB-435 4.88 µM

O=C(NNS(=O)(=O)c1ccccc1)c1csc(NC(=S)NC2CCCCC2)n1
inactive: OVCAR-4 34.6 µM | CAKI-1 28.4 µM | HCT-116 18.1 µM | SF-295 32.1 µM | SNB-75 32.8 µM | SF-539 37.5 µM | OVCAR-8 33.5 µM | OVCAR-5 52.1 µM | ACHN 33.5 µM | BT-549 25.4 µM | NCI-H522 26.2 µM | M14 39.2 µM | HOP-62 58.3 µM | PC-3 34.2 µM | OVCAR-3 4.07 µM | DU-145 27.2 µM | EKVX 35.6 µM | MDA-MB-435 20.6 µM

O/N=C1\C/C(=N\O)c2c(Br)sc(Br)c21
inactive: OVCAR-4 27.2 µM | CAKI-1 19.4 µM | HCT-116 37.4 µM | SF-295 > 100 µM | SNB-75 17.3 µM | SF-539 38.2 µM | OVCAR-8 19.2 µM | ACHN > 100 µM | BT-549 31.6 µM | NCI-H522 17.7 µM | M14 45.6 µM | HOP-62 32.1 µM | OVCAR-3 30.6 µM | DU-145 39.1 µM | EKVX 16.9 µM | MDA-MB-435 41.8 µM
